From patent US12618835B2, “Multiplex microelectrode array for detection of proteases as biomarkers” (Kansas State University Research Foundation, priority 2021, dated 2026) come the findings set out here.

Where no end group is shown, it is not given here. [ ]: non-standard residue; d: D form. The star is where a group is joined. aminomethylferrocene = [Fe+2].c1cc[c-](CN*)c1.c1cc[cH-]c1; Ava = NCCCCC(=O)O

The assay concerns cathepsin B in human serum. The assay is described as follows: Electrochemical (ACV) proteolysis of peptide-Fc on Au MEA by diluted human serum, with and without spiked rhCB. The assay is classed as biochemical. The protocol: Electrochemical Experiments. Electrochemical experiments were performed on a specially designed electrochemical cell mounted on a large copper block for temperature control by circulating thermostatic silicone liquid through the internal channels. The thermal circulator (Julabo, Allentown, PA) was set to achieve a temperature of 38.6° C. Two buffer solutions, 0.5×PB (pH=7.4) and 25 mM MES (pH=5.0), were used. In some experiments, the rhCB was activated by incubation in 25 mM MES buffer (pH=5.0) containing 5 mM DTT for 15 min. About 10 uL activated cathepsin B solution was added to the electrochemical cell containing 815 uL buffer solution (i.e., 0.5×PB with pH=7.4) as the electrolyte. Fc signal on the Au surface was detected by alternating current voltammetry (ACV) with an AC frequency of 300 Hz and a voltage amplitude of 100 mV on a DC ramp from −0.45 V to 0.20 V vs. MSE. Electrochemical measurements were performed using an IVIUM n-Stat potentiostat (Eindhoven, The Netherlands), which allows measurement of up to ten independent working electrodes simultaneously versus a common MSE reference electrode and a common Pt coil counter electrode.
Electrochemical Detection of Cathepsin B Activity in Human Serum. To assess the activity of cathepsin B in HS, we compared the kinetic proteolysis curves of 5% HS in 0.5×PB with and without activation by the electrochemical method. The 5% HS concentration is slightly higher than the 2.5% used in ELISA measurements to ensure that a clear exponential decay can be observed in electrochemical experiments. To minimize errors, three Au MEA chips were prepared side-by-side for three sets of experiments, i.e., (i) non-activated 5% HS in 0.5×PB, (ii) activated 5% HS in 0.5×PB, and (iii) the blank 0.5×PB. […] Based on equation (2), the concentration of the active form of cathepsin B in non-activated and activated sample (equivalent to 100% HS) can be calculated by: […]
Electrochemical Assessment of Effective Cathepsin B Activity Spiked in Human Serum. […] The data were recorded over 8 channels of the peptide-Fc modified Au MEA simultaneously. […]

As for “H2N-(CH2)4-CO-Pro-Leu-Ala-Phe-Val-Ala-NH-CH2-Fc ([Ava]PLAFVA-aminomethylferrocene) [Peptide H-15]”, the 1/τ entry is, setting by setting: (activated 5% HS in 0.5×PB (DTT/MES), 8 channels) “(33.2±3.0)×10^−4 s^−1”; (non-activated 5% HS in 0.5×PB spiked with 0.40 nM naturally active cathepsin B (1.0 nM non-activated rhCB)) “(12.99±1.66)×10^−4 s^−1”; (non-activated 5% HS in 0.5×PB spiked with 1.0 nM activated cathepsin B) “(68.4±7.53)×10^−4 s^−1”.
